In the first assay the target is recombinant Mcl-1 (residues 172-327) (Homo sapiens (Human), UniProt Q07820). In words: Bak peptide fluorescence polarization anisotropy competition assay, Mcl-1. In kind it is binding. The following applies: Table 2, Ki range; FITC-Bak peptide 10 nM, Mcl-1 14 nM; read-out: Ki for inhibition of Mcl-1.
Sequence of recombinant Mcl-1 (residues 172-327) (Q07820 172-327): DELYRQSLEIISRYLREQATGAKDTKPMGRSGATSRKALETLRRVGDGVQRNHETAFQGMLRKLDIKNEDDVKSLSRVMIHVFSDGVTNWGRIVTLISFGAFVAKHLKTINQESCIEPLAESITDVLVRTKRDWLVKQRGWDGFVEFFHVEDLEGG
`Cc1cc(OCCCc2c(C(=O)NS(C)(=O)=O)[nH]c3cccc(Cl)c23)ccc1Cl` [Example 50, 4-chloro-3-(3-(4-chloro-3-methylphenoxy)propyl)-N-(methylsulfonyl)-1H-indole-2-carboxamide]: the inhibition constant (Ki) was no more than 100 nM.

Regarding `Cc1cc(OCCCc2c(C(=O)NS(C)(=O)=O)[nH]c3cccc(Cl)c23)cc(C)c1Cl` [Example 51, 4-chloro-3-(3-(4-chloro-3,5-dimethylphenoxy)propyl)-N-(methylsulfonyl)-1H-indole-2-carboxamide], the inhibition constant (Ki) is no more than 100 nM.

The assay is the same for the next values; noted with them: read-out: Ki for inhibition of Mcl-1.
Turning to `Cc1ccc2c(CCCOc3cccc4ccccc34)c(C(=O)O)sc2c1` [Example 9, 6-methyl-3-(3-(naphthalen-1-yloxy)propyl)benzo[b]thiophene-2-carboxylic acid], the Ki fell in the range of 501 to 999 nM. The same measure, in the same setting: the figure for `Cc1ccccc1-c1cccc2c(CCCOc3cccc4ccccc34)c(C(=O)O)sc12` [Example 10, 3-(3-(naphthalen-1-yloxy)propyl)-7-(o-tolyl)benzo[b]thiophene-2-carboxylic acid] is 101 to 299 nM. For `O=C(O)c1sc2c(-c3ccccc3)cccc2c1CCCOc1cccc2ccccc12` [Example 11, 3-(3-(naphthalen-1-yloxy)propyl)-7-phenylbenzo[b]thiophene-2-carboxylic acid], the Ki lay within 501 to 999 nM. The same measure, in the same setting: the figure for `Cc1ccccc1-c1ccc2c(CCCOc3cccc4ccccc34)c(C(=O)O)sc2c1` [Example 12, 3-(3-(naphthalen-1-yloxy)propyl)-6-(o-tolyl)benzo[b]thiophene-2-carboxylic acid] is 1000 to 9990 nM. Same read-out and setting: the figure for `O=C(O)c1sc2cc(-c3ccccc3)ccc2c1CCCOc1cccc2ccccc12` [Example 13, 3-(3-(naphthalen-1-yloxy)propyl)-6-phenylbenzo[b]thiophene-2-carboxylic acid] is 1000 to 9990 nM.

On to `CS(=O)(=O)NC(=O)c1cc2ccccc2n1CCCOc1cccc2ccccc12` [Example 14, N-(methylsulfonyl)-1-(3-(naphthalen-1-yloxy)propyl)-1H-indole-2-carboxamide], for which the Ki was 301 to 500 nM. In the case of `O=C(NS(=O)(=O)C(F)(F)F)c1cc2ccccc2n1CCCOc1cccc2ccccc12` [Example 15, 1-(3-(naphthalen-1-yloxy)propyl)-N-((trifluoromethyl)sulfonyl)-1H-indole-2-carboxamide], the Ki lay within 501 to 999 nM. The same measure, in the same setting: the figure for `CS(=O)(=O)NC(=O)c1[nH]c2ccccc2c1CCCOc1cccc2ccccc12` [Example 19, N-(methylsulfonyl)-3-(3-(naphthalen-1-yloxy)propyl)-1H-indole-2-carboxamide] is 1000 to 9990 nM. In the case of `Cc1cc(OCCCc2c(C(=O)NS(C)(=O)=O)[nH]c3ccccc23)ccc1Cl` [Example 20, 3-(3-(4-chloro-3-methylphenoxy)propyl)-N-(methylsulfonyl)-1H-indole-2-carboxamide], the Ki lay in the range of 301 to 500 nM. The same measure, in the same setting: for `O=C(O)c1oc2ccccc2c1CCCc1cccc2ccccc12` [Example 22, 3-(3-(naphthalen-1-yl)propyl)benzofuran-2-carboxylic acid] the value was 10000 to 50000 nM; for `O=C(O)c1oc2ccccc2c1CCc1cccc2ccccc12` [Example 23, 3-(2-(naphthalen-1-yl)ethyl)benzofuran-2-carboxylic acid], 10000 to 50000 nM. Same read-out and setting: for `O=C(NS(=O)(=O)c1ccc2ccccc2c1)c1oc2ccccc2c1CCCOc1cccc2ccccc12` [Example 25, 3-(3-(naphthalen-1-yloxy)propyl)-N-(naphthalen-2-ylsulfonyl)benzofuran-2-carboxamide] the value was 1000 to 9990 nM; for `Cc1cc(OCCCc2c(C(=O)NS(=O)(=O)c3ccc4ccccc4c3)oc3ccccc23)cc(C)c1Cl` [Example 27, 3-(3-(4-chloro-3,5-dimethylphenoxy)propyl)-N-(naphthalen-2-ylsulfonyl)benzofuran-2-carboxamide], 1000 to 9990 nM; for `Cc1cc(OCCCc2c(C(=O)NS(=O)(=O)c3cccc4ccccc34)oc3ccccc23)cc(C)c1Cl` [Example 28, 3-(3-(4-chloro-3,5-dimethylphenoxy)propyl)-N-(naphthalen-1-ylsulfonyl)benzofuran-2-carboxamide], 1000 to 9990 nM. Turning to `Cc1cc(OCCCc2c(C(=O)NS(C)(=O)=O)[nH]c3ccccc23)cc(C)c1Cl` [Example 29, 3-(3-(4-chloro-3,5-dimethylphenoxy)propyl)-N-(methylsulfonyl)-1H-indole-2-carboxamide], the Ki is 501 to 999 nM. Same read-out and setting: for `CS(=O)(=O)NC(=O)c1[nH]c2ccccc2c1CCCOc1ccccc1` [Example 30, N-(methylsulfonyl)-3-(3-phenoxypropyl)-1H-indole-2-carboxamide] the value was 10000 to 50000 nM. The same measure, in the same setting: for `Cc1cccc(OCCCc2c(C(=O)NS(C)(=O)=O)[nH]c3ccccc23)c1` [Example 31, N-(methylsulfonyl)-3-(3-(m-tolyloxy)propyl)-1H-indole-2-carboxamide] the value was 10000 to 50000 nM; for `CS(=O)(=O)NC(=O)c1[nH]c2ccccc2c1CCCOc1cccc(C(F)(F)F)c1` [Example 32, N-(methylsulfonyl)-3-(3-(3-(trifluoromethyl)phenoxy)propyl)-1H-indole-2-carboxamide], 1000 to 9990 nM; for `Cc1ccc(OCCCc2c(C(=O)NS(C)(=O)=O)[nH]c3ccccc23)cc1` [Example 33, N-(methylsulfonyl)-3-(3-(p-tolyloxy)propyl)-1H-indole-2-carboxamide], 10000 to 50000 nM. The same measure, in the same setting: for `CS(=O)(=O)NC(=O)c1[nH]c2ccccc2c1CCCOc1ccc(C(F)(F)F)cc1` [Example 34, N-(methylsulfonyl)-3-(3-(4-(trifluoromethyl)phenoxy)propyl)-1H-indole-2-carboxamide] the value was 10000 to 50000 nM. For the molecule `CS(=O)(=O)NC(=O)c1[nH]c2ccccc2c1CCCOc1ccc(Cl)cc1` [Example 35, 3-(3-(4-chlorophenoxy)propyl)-N-(methylsulfonyl)-1H-indole-2-carboxamide], the Ki is 10000 to 50000 nM.

As to `CS(=O)(=O)NC(=O)c1[nH]c2ccccc2c1CCCOc1ccc(Br)cc1` [Example 36, 3-(3-(4-bromophenoxy)propyl)-N-(methylsulfonyl)-1H-indole-2-carboxamide], the Ki lay in the range of 10000 to 50000 nM. As for `CS(=O)(=O)NC(=O)c1[nH]c2ccccc2c1CCCOc1ccc2ccccc2c1` [Example 37, N-(methylsulfonyl)-3-(3-(naphthalen-2-yloxy)propyl)-1H-indole-2-carboxamide], the Ki lay within 1000 to 9990 nM. `CS(=O)(=O)NC(=O)c1[nH]c2ccccc2c1CCCOc1ccc2c(c1)CCCC2` [Example 38, N-(methylsulfonyl)-3-(3-((5,6,7,8-tetrahydronaphthalen-2-yl)oxy)propyl)-1H-indole-2-carboxamide]: the Ki was 1000 to 9990 nM.

With `CS(=O)(=O)NC(=O)c1[nH]c2ccccc2c1CCCOc1ccc(Cl)c2ccccc12` [Example 39, 3-(3-((4-chloronaphthalen-1-yl)oxy)propyl)-N-(methylsulfonyl)-1H-indole-2-carboxamide], the Ki was in the range of 501 to 999 nM.

As for `CCc1cc(OCCCc2c(C(=O)NS(C)(=O)=O)[nH]c3ccccc23)ccc1Cl` [Example 44, 3-(3-(4-chloro-3-ethylphenoxy)propyl)-N-(methylsulfonyl)-1H-indole-2-carboxamide], the Ki lay in the range of 1000 to 9990 nM.

In the case of `CS(=O)(=O)NC(=O)c1[nH]c2ccccc2c1CCCOc1cccc2c1CCCC2` [Example 46, N-(methylsulfonyl)-3-(3-((5,6,7,8-tetrahydronaphthalen-1-yl)oxy)propyl)-1H-indole-2-carboxamide], the Ki fell in the range of 1000 to 9990 nM.

For `CS(=O)(=O)NC(=O)c1[nH]c2cccc(Cl)c2c1CCCOc1cccc2ccccc12` [Example 49, 4-chloro-N-(methylsulfonyl)-3-(3-(naphthalen-1-yloxy)propyl)-1H-indole-2-carboxamide], the Ki lay in the range of 101 to 299 nM. As for `CS(=O)(=O)NC(=O)c1[nH]c2cc(Cl)ccc2c1CCCOc1cccc2ccccc12` [Example 52, 6-chloro-N-(methylsulfonyl)-3-(3-(naphthalen-1-yloxy)propyl)-1H-indole-2-carboxamide], the Ki was 101 to 299 nM.

Consider `Cc1cc(OCCCc2c(C(=O)NS(C)(=O)=O)[nH]c3cc(Cl)ccc23)ccc1Cl` [Example 53, 6-chloro-3-(3-(4-chloro-3-methylphenoxy)propyl)-N-(methylsulfonyl)-1H-indole-2-carboxamide], for which the inhibition constant (Ki) was 301 to 500 nM. Still for that read-out and setting: the figure for `Cc1cc(OCCCc2c(C(=O)NS(C)(=O)=O)[nH]c3cc(Cl)ccc23)cc(C)c1Cl` [Example 54, 6-chloro-3-(3-(4-chloro-3,5-dimethylphenoxy)propyl)-N-(methylsulfonyl)-1H-indole-2-carboxamide] is 101 to 299 nM. The same measure, in the same setting: the figure for `CS(=O)(=O)NC(=O)c1sc2ccccc2c1CCCOc1cccc2ccccc12` [Example 61, N-(methylsulfonyl)-3-(3-(naphthalen-1-yloxy)propyl)benzo[b]thiophene-2-carboxamide] is 1000 to 9990 nM; for `O=C(NS(=O)(=O)Cc1ccccc1)c1sc2ccccc2c1CCCOc1cccc2ccccc12` [Example 62, N-(Benzylsulfonyl)-3-(3-(naphthalen-1-yloxy)propyl)benzo[b]thiophene-2-carboxamide] it is 1000 to 9990 nM. On the same count and under the same terms, for `O=C(O)c1sc2ccccc2c1CCCc1cccc2ccccc12` [Example 63, 3-(3-(naphthalen-1-yl)propyl)benzo[b]thiophene-2-carboxylic acid] the value was 1000 to 9990 nM; for `O=C(O)c1sc2ccccc2c1CCc1cccc2ccccc12` [Example 64, 3-(2-(naphthalen-1-yl)ethyl)benzo[b]thiophene-2-carboxylic acid], 1000 to 9990 nM; for `Cc1cc(OCCCc2c(C(=O)NS(=O)(=O)C3CC3)[nH]c3cc(Cl)ccc23)cc(C)c1Cl` [Example 65, 6-chloro-3-(3-(4-chloro-3,5-dimethylphenoxy)propyl)-N-(cyclopropylsulfonyl)-1H-indole-2-carboxamide], 101 to 299 nM.

As for `Cc1cc(OCCCc2c(C(=O)NS(=O)(=O)Cc3ccccc3)[nH]c3cc(Cl)ccc23)cc(C)c1Cl` [Example 66, N-(benzylsulfonyl)-6-chloro-3-(3-(4-chloro-3,5-dimethylphenoxy)propyl)-1H-indole-2-carboxamide], the inhibition constant Ki lay in the range of 101 to 299 nM.

What is called Ki is the dissociation constant of the complex between target and ligand, obtained from inhibition or displacement.

Values taken from US10844032B2, “Substituted benzofuran, benzothiophene and indole Mcl-1 inhibitors” (Vanderbilt University, priority 2012, dated 2020).
